ChEMBL document CHEMBL1287680, “C-11 diamino cryptolepine derivatives NSC748392, NSC748393, and NSC748394: anticancer profile and G-quadruplex stabilization” (Bioorg Med Chem Lett, 2010)

Assays:
Vero = experiment: cells; settings: Chlorocebus sabaeus, 48 h
Description: Cytotoxicity against african green monkey Vero cells after 48 hrs by MTT assay

Description for physchem: Dissociation constant, pKa of the compound by UV-visible spectroscopy

| Structure (SMILES) | pKa (physchem) | IC50 (Vero) [nM] |
| --- | --- | --- |
| C[n+]1c2ccccc2c(NC2CCN(Cc3ccccc3)CC2)c2[nH]c3ccccc3c21 | 11.5 | 2200 |
| CCN(CC)c1c2ccccc2[n+](C)c2c1[nH]c1ccccc12 | – | 3000 |
| CN(C)CCCNc1c2ccccc2[n+](C)c2c1[nH]c1ccccc12 | 11.9 | 2200 |
| CC(CN(C)C)Nc1c2ccccc2[n+](C)c2c1[nH]c1ccccc12 (configuration not stated) | 11.6 | 3000 |
| C[n+]1c2cc(Cl)ccc2c(NC2CCNCC2)c2[nH]c3ccccc3c21 | 11.1 | 4400 |
| CCN(CC)CCCNc1c2ccc(Cl)cc2[n+](C)c2c1[nH]c1ccccc12 | 11.2 | 1300 |
| CN(C)CC(C)(C)CNc1c2ccccc2[n+](C)c2c1[nH]c1ccccc12 | 11.7 | 3000 |
| C[n+]1c2cc(Cl)ccc2c(NC2CCNCC2)c2[nH]c3cc(Cl)ccc3c21 | 10.3 | 800 |
| C[n+]1c2ccccc2c(Nc2ccccc2)c2[nH]c3ccccc3c21 | 10.6 | 600 |
| CCN(CC)Cc1ccc(Nc2c3ccccc3[n+](C)c3c2[nH]c2ccccc23)cc1O | 10.8 | 800 |
| CC(C)CN1CCC(Nc2c3ccccc3[n+](C)c3c2[nH]c2ccccc23)CC1 | 11.6 | 5000 |

The next lines start with results.

| pKa (physchem) | Structure (SMILES) | IC50 (Vero) [nM] |
| --- | --- | --- |
| 11.6 | CN(C)CCNc1c2ccccc2[n+](C)c2c1[nH]c1ccccc12 | 5500 |
| 10.3 | C[n+]1c2ccccc2c(Nc2cccnc2)c2[nH]c3ccccc3c21 | 2600 |
| 11.5 | CC(C)NCCCNc1c2ccccc2[n+](C)c2c1[nH]c1ccccc12 | 3000 |
| 11.6 | CCN(CC)CCNc1c2ccccc2[n+](C)c2c1[nH]c1ccccc12 | 2800 |
| 11.4 | CCN(CC)CCCC(C)Nc1c2ccccc2[n+](C)c2c1[nH]c1ccccc12 (configuration not stated) | 13000 |
| 11.6 | C[n+]1c2ccccc2c(NC2CCN(Cc3ccccc3O)CC2)c2[nH]c3ccccc3c21 | 2600 |
| 11.6 | CCN(CC)CCCNc1c2ccccc2[n+](C)c2c1[nH]c1ccccc12 | 2500 |
| 11.7 | C[n+]1c2ccccc2c(NCCCN2CCCCC2)c2[nH]c3ccccc3c21 | 2000 |
